In patent US8912142B2, “Method of regulating proliferation and differentiation of keratinocyes” (The Medical Research, Infrastructure and Health Services …, priority 2009, dated 2014):
d = 2'-deoxy (DNA); r = 2'-OH (RNA)

Legend:
[1] = system: primary keratinocytes transfected with IGFBP7 siRNA; assay: ERK inhibition, proliferation of IGFBP7-silenced primary keratinocytes; type: cell-based, human; settings: 120 μM for 72 hours, medium refreshed every 24 hours
Experimental: FIG. 17 is a histogram depicting the effect of ERK inhibition on primary keratinocytes proliferation in IFGBP7-silenced cells and control cells. Primary keratinocytes which were transfected with IGFBP7 siRNA were treated with 120 μM PD98059 (ERK inhibitor) for 72 hours, while refreshing the medium every 24 hours. Note that ERK inhibition attenuates cell proliferation induced by IGFBP7 down-regulation (p<0.01).
To further investigate the involvement of ERK in IGFBP7-mediated cell proliferation primary keratinocytes which were transfected with IGFBP7 siRNA were treated with the ERK inhibitor PD98059 (120 μM for 72 hours, while refreshing the medium every 24 hours).

[2] = system: primary human keratinocytes; assay: BrDu incorporation assay (proliferation) in primary keratinocytes; type: cell-based
Experimental: FIGS. 3A-F depict viability and proliferation assays of keratinocytes. […] Data represent mean values±SD of three independent experiments. Asterisk, p<0.01 compared with control cells. FIG. 3B—HaCat cells stably expressing an IGFBP7-specific shRNA or a control shRNA were assessed using the BrDu assay (stable transfection). Data represent mean values±SD of three independent experiments. Asterisk, p<0.01 compared with control cells. FIGS. 3C and D—KRT6a mRNA and protein levels were assessed by qRT-PCR (FIG. 3C) and immunoblotting (FIG. 3D) in HaCat cells stably expressing an IGFBP7-specific shRNA or a control shRNA. FIGS. 3E and F—Primary keratinocytes were transiently transfected with IGFBP7-specific siRNA (IGFBP7) or with control siRNA (control) and assessed using the MTT assay (FIG. 3E; 24 and 48 hours post transfection) and the BrDu assay (FIG. 3F; 24 hours post transfection). […]
(§1) FIGS. 6A-C depict cell viability and proliferation assays of primary keratinocytes which exogenously express IGFBP7. […] FIGS. 6A-B—Cell viability and proliferation were assessed using the MTT (FIG. 6A) and BrDU (FIG. 6B) assays. FIG. 6C—Apoptosis was quantitated by TUNEL assay. […]
The incorporation rate of BrdU was determined by Cell Proliferation ELISA BrdU colorimetric kit (Roche, Mannheim, Germany) according to manufacturer's protocol. Absorbance at 450 nm was measured using an ELISA reader. […]

[3] = system: three-dimensional organotypic skin equivalents; assay: H&E staining of organotypic skin equivalents; type: cell-based, human; settings: day 14
Experimental: The present inventors used a three-dimensional organotypic cell culture system to model the role of decreased IGFBP7 expression in the pathogenesis of psoriasis (FIGS. 18 and 19). In this model system, keratinocytes are grown at the air liquid interface on a support consisting of collagen and fibroblasts for up to 2 weeks. During this time, keratinocytes fully differentiate, forming a multilayered, cornified epithelium which faithfully replicates most physiological aspects of normal epidermal biology. The present inventors established the conditions necessary to grow such three-dimensional skin equivalents. Histological and immunohistochemical analyses confirmed the existence of a legitimate differentiation program in these cultures. […] At day 12, the stratum corneum was thickened and desquamation, i.e., detachment of cornified keratinocytes, occurred (FIG. 20).
(§2) To confirm the physiological relevance of these findings in keratinocyte monolayers, the present inventors suppressed the expression of IGFBP7 by RNA interference in skin organotypic cultures. […] Punch biopsies were also taken at day 7 for RNA extraction, transcribed to cDNA and analyzed by qRT-PCR for IGFBP7 mRNA expression. IGFBP7 specific siRNA suppressed IGFBP7 expression to less than 60% of the normal level in skin equivalents as measured at day 7 (data not shown). […]

[4] = system: primary human keratinocytes; assay: MTT assay (cell viability) in primary keratinocytes; type: cell-based
Experimental: (§3) FIGS. 3A-F depict viability and proliferation assays of keratinocytes. […] Data represent mean values±SD of three independent experiments. Asterisk, p<0.01 compared with control cells. FIG. 3B—HaCat cells stably expressing an IGFBP7-specific shRNA or a control shRNA were assessed using the BrDu assay (stable transfection). Data represent mean values±SD of three independent experiments. Asterisk, p<0.01 compared with control cells. FIGS. 3C and D—KRT6a mRNA and protein levels were assessed by qRT-PCR (FIG. 3C) and immunoblotting (FIG. 3D) in HaCat cells stably expressing an IGFBP7-specific shRNA or a control shRNA. FIGS. 3E and F—Primary keratinocytes were transiently transfected with IGFBP7-specific siRNA (IGFBP7) or with control siRNA (control) and assessed using the MTT assay (FIG. 3E; 24 and 48 hours post transfection) and the BrDu assay (FIG. 3F; 24 hours post transfection). Data represent mean values±SD of three independent experiments (Asterisk, p<0.01 compared with control cells).
as §1

[5] = system: primary human keratinocytes; assay: TUNEL apoptosis assay in primary keratinocytes; type: cell-based
Experimental: FIGS. 4A-C depict apoptosis assays in HaCat or primary keratinocyte cells. FIGS. 4A-B—HaCat cells stably expressing IGFBP7-specific (IGFBP7) or control shRNA (Co) (scrambled control), were exposed to 10 ng/μl of recombinant tumor necrosis factor-alpha (TNF-α) (+) or vehicle (−) 24 hours after transfection. Apoptosis was measured using the TUNEL assay (FIG. 4A) or the Annexin V assay (FIG. 4B). FIG. 4C—Primary keratinocytes were transiently transfected with IGFBP7-specific siRNA (IGFBP7) or with scrambled control siRNA (Co) and exposed to 10 ng/μl of recombinant TNF-α (+) or vehicle (−). Apoptotic activity was assessed by the TUNEL assay. All experiments were repeated three times. Results are provided as mean values±SD. […]
as §1
Apoptosis was assessed using the TUNEL kit (Roche, Mannheim, Germany) according to the manufacturer's protocol. […] More than 1,000 cells were counted for each slide and examined under a fluorescent microscope Zeiss Axioscope 2 (Carl Zeiss MicroImaging, Inc., Thornwood, N.Y.). […] Differences in apoptotic activity were considered significant at p-values <0.01 calculated using a standard Student's t-test.

IGFBP7 = assay: qRT-PCR of IGFBP7 mRNA in organotypic skin equivalents; type: cell-based, human
Experimental: RNA was extracted from cultured cells using an RNA extraction kit (Roche Mannheim, Germany). cDNA was synthesized from 500 ng of total RNA using the Reverse-iT first strand synthesis kit (ABgene, Epson, UK) and random hexamers. cDNA PCR amplification was carried out using the SYBR Green JumpStart Taq ReadyMix (Sigma-Aldrich, St Louis, Mo., USA) on a M×3000 p/5 p multifilter system (Stratagene, Cedar Creek, Tex., USA) with gene-specific intron-crossing oligonucleotide pairs listed in Table 2 below. To ensure the specificity of the reaction conditions, at the end of the individual runs, the melting temperature (Tm) of the amplified products was measured to confirm its homogeneity. […] Each sample was analyzed in triplicate. For quantification, standard curves were obtained using serially diluted cDNA amplified in the same real-time PCR run. […] After the quantification procedure, the products were resolved by 2.5% agarose gel electrophoresis to confirm that the reaction had amplified DNA fragments of expected size.
as §2, with “expression.” for “expression. IGFBP7 specific siRNA suppressed IGFBP7 expression to less than 60% of the normal level in skin equivalents as measured at day 7 (data not shown).”

HaCat cells = assay: MTT assay (cell viability) in HaCat cells; type: cell-based, human; settings: siRNA, cultured 24 and 72 hours
Experimental: as §3
The MTT test is based on the selective ability of living cells to reduce the yellow salt MTT (3-(4,5-dimethylthiazolyl-2)-2,5-diphenyltetrazolium bromide) (Sigma, Aldrich St Louis, Mo., USA) to a purple-blue insoluble formazan precipitate. […] The supernatants were collected and then scanned with an ELISA reader Zenyth 200 (Anthos Labtec, Cambridge, UK) at 560 nm.

[6] = system: human skin grafted onto beige-SCID mice injected with NK/T cells from psoriatic patients; assay: Chimeric human-mouse psoriasis model, histology; type: in vivo; settings: intralesional, histology two weeks after the treatment
Experimental: To assess the effect of IGFBP7 on psoriasis, the present inventors used a chimeric mouse model (FIG. 23). The model is based on the use of normal skin from healthy controls that is grafted onto beige-SCID mice. The grafts are then injected with NK/T cells isolated from psoriatic patients (Gilhar et al., 2002).
In the experimental system used herein, two weeks after NK injection (6 weeks after engraftment) 3 groups of mice were treated with intralesional PBS, topical dexamethasone and intralesional IGFBP7. The effect of the treatment was monitored by histology analysis two weeks after the treatment (8 weeks after engraftment).

[7] = system: primary keratinocyte cells; assay: Effect of rIGFBP7 on differentiation of primary keratinocytes; type: cell-based, human; settings: data not shown
From the text: To confirm the involvement of IGFBP7 in the regulation of keratinocyte proliferation and differentiation, the present inventors examined the effect of recombinant human IGFBP7 polypeptide (rIGFBP7) on primary keratinocyte cells.

[8] = 1.8 μg/μl rIGFBP7 for 72 hours, then 12 hours in medium lacking rIGFBP7

## COc1cccc(-c2cc(=O)c3ccccc3o2)c1N [PD98059]
[1]
  keratinocyte proliferation induced by IGFBP7 down-regulation: prevented the induction of keratinocyte proliferation

## IGFBP7 specific siRNA: siRNA IGFBP7 duplex of SEQ ID NO:32 and SEQ ID NO:33 (Sigma-Proligo) (chain 1 GCUGGUAUCUCCUCUAAGUTT; chain 2 ACUUAGAGGAGAUACCAGCTT; sugars from the 5' end r19 d2, backbone not given here)
[2]; primary keratinocytes, 24 hours post transfection
  cell proliferation (BrDu assay): more viable and proliferative
[3]
  H&E histological changes: abnormal stratification, absence of granular layer, parakeratosis and marked hyperkeratosis
[4]; primary keratinocytes, 24 and 48 hours post transfection
  cell viability (MTT assay): more viable and proliferative
[5]; primary keratinocytes transiently transfected, 10 ng/μl recombinant TNF-α
  TNF-α-induced cell apoptosis (TUNEL assay): prevented TNF-α-induced cell apoptosis
IGFBP7; organotypic skin model, data not shown
  duration of the siRNA effect: at least 7 days
IGFBP7; skin equivalents, day 7, data not shown
  IGFBP7 expression relative to normal level: less than 60%
HaCat cells
  cell viability (MTT assay): more viable and proliferative

## rIGFBP7: human recombinant IGFBP7 polypeptide (R&D systems Inc. Catalogue No. 1334-B7-025)
[6]
  mice with features of psoriasis on histology: one animal only showed features of psoriasis on histology
  mice with full recovery on histology: three mice showed full recovery
  mice with partial recovery on histology: one mouse recovered partially (50%)
  mononuclear infiltrating cells in the dermis: could still be seen in the dermis albeit in smaller numbers
[2]; [8]
  cell proliferation (BrDu assay): decrease in cell proliferation
[4]; [8]
  viable cell counts (MTT assay): decrease in viable cell counts
[7]
  cell differentiation: lacked significant effect on cell differentiation
[5]; 1.8 μg/μl rIGFBP7 for 72 hours, then 12 hours in medium lacking rIGFBP7, TNF-α-mediated
  keratinocyte apoptosis (TUNEL assay): increase in keratinocyte apoptosis
